Experiments:
Experiment in all cases: relative viability (nuclei count vs DMSO), 5 days (fraction); higher = more cells survive
Vismodegib + OSI-027 = compound: CS(=O)(=O)c1ccc(C(=O)Nc2ccc(Cl)c(-c3ccccn3)c2)c(Cl)c1 [Vismodegib] + COc1cccc2cc(-c3nc([C@H]4CC[C@H](C(=O)O)CC4)n4ncnc(N)c34)[nH]c12 [OSI-027] (partner 0.5 µM)
How it was run: (§1)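 After 5 days of treatment, lung cancer cells in 1536-well plates were fixed and stained in a single step (final 0.05% Triton X-100, 1% formaldehyde, 1 ug/ml Hoechst) and their nuclei counted on 4× images. Treatment had been applied by pin tool the day after seeding as one drug alone or as a fixed anchor-drug dose with five library-drug doses (not always all listed) in √10 steps. Relative viability is the nuclei count of treated wells divided by that of vehicle wells, and values are medians of duplicate plates.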

VE-821 + Tozasertib = compound: CS(=O)(=O)c1ccc(-c2cnc(N)c(C(=O)Nc3ccccc3)n2)cc1 [VE-821] + Cc1cc(Nc2cc(N3CCN(C)CC3)nc(Sc3ccc(NC(=O)C4CC4)cc3)n2)n[nH]1 [Tozasertib] (partner 0.1 µM)
How it was run: as §1

Ruxolitinib + Decitabine = compound: N#CC[C@H](C1CCCC1)n1cc(-c2ncnc3[nH]ccc23)cn1 [Ruxolitinib] + Nc1ncn([C@H]2C[C@H](O)[C@@H](CO)O2)c(=O)n1 [Decitabine] (partner 2 µM)
How it was run: as §1

Ruxolitinib + Linsitinib = compound: N#CC[C@H](C1CCCC1)n1cc(-c2ncnc3[nH]ccc23)cn1 [Ruxolitinib] + C[C@]1(O)C[C@@H](c2nc(-c3ccc4ccc(-c5ccccc5)nc4c3)c3c(N)nccn32)C1 [Linsitinib] (partner 1 µM)
How it was run: as §1

| Cell Line | relative viability (Vismodegib + OSI-027; first compound 0.08 µM) | relative viability (Vismodegib + OSI-027; first compound 0.253 µM) | relative viability (Vismodegib + OSI-027; first compound 0.8 µM) | relative viability (Vismodegib + OSI-027; first compound 2.53 µM) | relative viability (Vismodegib + OSI-027; first compound 8 µM) | relative viability (VE-821 + Tozasertib; first compound 0.08 µM) | relative viability (VE-821 + Tozasertib; first compound 0.253 µM) | relative viability (VE-821 + Tozasertib; first compound 0.8 µM) | relative viability (VE-821 + Tozasertib; first compound 2.53 µM) | relative viability (VE-821 + Tozasertib; first compound 8 µM) | relative viability (Ruxolitinib + Decitabine; first compound 0.08 µM) | relative viability (Ruxolitinib + Decitabine; first compound 0.253 µM) | relative viability (Ruxolitinib + Decitabine; first compound 0.8 µM) | relative viability (Ruxolitinib + Decitabine; first compound 2.53 µM) | relative viability (Ruxolitinib + Decitabine; first compound 8 µM) | relative viability (Ruxolitinib + Linsitinib; first compound 0.253 µM) | relative viability (Ruxolitinib + Linsitinib; first compound 0.8 µM) | relative viability (Ruxolitinib + Linsitinib; first compound 2.53 µM) | relative viability (Ruxolitinib + Linsitinib; first compound 8 µM) | relative viability (Ruxolitinib + Linsitinib; first compound 0.08 µM) |
| --- | --- | --- | --- | --- | --- | --- | --- | --- | --- | --- | --- | --- | --- | --- | --- | --- | --- | --- | --- | --- |
| NCI-H1623 | 0.476 | 0.415 | 0.461 | 0.419 | 0.456 | 0.481 | 0.404 | 0.398 | 0.463 | 0.364 | – | – | – | – | – | – | – | – | – | – |
| NCI-H520 | 0.284 | 0.227 | 0.298 | 0.314 | 0.309 | 0.493 | 0.457 | – | 0.435 | 0.858 | 0.506 | 0.484 | 0.553 | 0.47 | 0.525 | 1.08 | 1.16 | 0.847 | 0.679 | – |
| NCI-H2405 | 0.621 | 0.615 | 0.573 | 0.621 | 0.639 | 0.824 | 0.714 | 0.713 | 0.726 | 0.742 | 0.765 | 0.786 | 0.792 | 0.682 | 0.424 | 0.779 | 1.1 | 0.528 | 0.632 | – |
| PC-3 [JPC-3] | 0.823 | 0.756 | 0.718 | 0.728 | 0.673 | 0.956 | 0.819 | 0.881 | 0.805 | 0.787 | – | 0.856 | 0.899 | 0.754 | 0.718 | 0.973 | 0.973 | 0.963 | 0.872 | 0.882 |
| EBC-1 | – | – | – | – | – | – | – | – | – | – | – | – | – | – | – | 1.1 | 1.06 | 0.783 | 0.823 | 0.831 |
| NCI-H2347 | 0.568 | 0.454 | 0.304 | 0.425 | 0.454 | 0.506 | 0.6 | 0.272 | 0.498 | 0.506 | 0.614 | 0.602 | 0.65 | 0.563 | 0.62 | 0.939 | 1.05 | 0.886 | 0.965 | 0.893 |
| LXF-289 | 0.764 | 0.764 | 0.795 | 0.823 | 0.59 | 0.246 | 0.196 | 0.205 | 0.193 | 0.119 | 0.369 | 0.426 | 0.353 | 0.363 | 0.371 | 0.972 | 0.858 | 0.892 | 0.813 | 0.919 |
| HCC-78 | 0.372 | 0.371 | 0.382 | 0.347 | 0.347 | 0.461 | 0.362 | 0.385 | 0.372 | 0.321 | 0.598 | 0.607 | 0.677 | 0.527 | 0.661 | 0.296 | 0.437 | 0.372 | 0.414 | 0.419 |
| HCC-366 | 1.32 | 0.888 | 0.77 | 0.929 | 0.775 | 0.0768 | 0.0713 | 0.0434 | 0.0568 | 0.0298 | 0.361 | 0.321 | 0.318 | 0.24 | 0.275 | 0.401 | 0.647 | 0.535 | 0.541 | 0.595 |
| NCI-H2023 | 0.464 | 0.354 | 0.411 | 0.322 | 0.478 | 0.401 | 0.297 | 0.129 | 0.107 | 0.0977 | 0.214 | 0.264 | 0.267 | 0.218 | 0.271 | 0.589 | 0.722 | 0.683 | 0.672 | 0.689 |
| NCI-H1734 | 0.603 | 0.598 | 0.727 | 0.577 | 0.605 | 0.292 | 0.245 | 0.235 | 0.24 | 0.226 | 0.512 | 0.485 | 0.613 | 0.423 | 0.494 | 0.752 | 0.794 | 0.8 | 0.821 | 0.852 |
| SK-LU-1 | 0.414 | 0.39 | 0.384 | 0.401 | 0.345 | 0.383 | 0.286 | 0.274 | 0.208 | 0.193 | 0.547 | 0.693 | 0.755 | 0.522 | 0.622 | 1.19 | 1.27 | 0.974 | 0.945 | 1.16 |
| CAL-12T | 0.776 | 0.462 | 0.774 | 0.636 | 0.654 | 0.307 | 0.227 | 0.189 | 0.207 | 0.147 | – | – | – | – | – | 0.744 | 0.853 | 0.614 | 0.7 | 0.819 |
| NCI-H522 | 0.805 | 0.742 | 0.672 | 0.659 | 0.812 | 0.633 | 0.63 | 0.537 | 0.453 | 0.575 | 0.694 | 0.695 | 0.669 | 0.701 | 0.654 | – | – | – | – | – |
| NCI-H1792 | 0.766 | 0.75 | 0.606 | 0.679 | 0.623 | – | – | – | – | – | 0.516 | 0.544 | 0.602 | 0.425 | 0.476 | 0.504 | 0.488 | 0.417 | 0.499 | 0.495 |
| Calu-6 | – | – | – | – | – | – | – | – | – | – | – | – | – | – | – | 0.923 | 1.01 | – | 0.882 | 0.94 |
| IA-LM | – | – | – | – | – | – | – | – | – | – | – | – | – | – | – | 0.662 | 0.719 | 0.518 | 0.469 | 0.652 |
| NCI-H1648 | 0.22 | 0.27 | 0.29 | 0.258 | 0.207 | 0.415 | 0.608 | 0.518 | 0.61 | 0.345 | 0.472 | 0.558 | 0.588 | 0.592 | 0.861 | – | – | – | – | – |
| NCI-H2228 | 0.7 | 0.636 | 0.587 | 0.532 | 0.467 | 0.312 | 0.2 | 0.212 | 0.256 | 0.156 | – | – | – | – | – | 0.686 | 0.85 | 0.626 | 0.559 | 0.796 |
| NCI-H1703 | – | – | – | – | – | – | – | – | – | – | – | – | – | – | – | 0.624 | 1.25 | 0.451 | 0.547 | 1.07 |
| NCI-H1299 | – | – | – | – | – | – | – | – | – | – | – | – | – | – | – | 0.974 | 0.975 | 0.917 | 0.871 | 0.981 |
| NCI-H2170 | 0.658 | 0.609 | 0.686 | 0.723 | 0.699 | 0.744 | 0.727 | 0.662 | 0.794 | 0.477 | 0.499 | 0.436 | 0.496 | 0.425 | 0.427 | – | – | – | – | – |

— the supplement of paper PMC10307832
